Results as given in patent US20250281457A1, “TREATMENT OR PREVENTION OF DENGUE VIRAL INFECTION” (Janssen Pharmaceuticals, Inc., priority 2022, published 2025).
Like-named read-outs stand apart in the source and are kept apart here.

Assay: Plasma pharmacokinetics with loading dose and weekly or twice weekly maintenance dosing, fed (Example 5)
Type: in vivo, human
Details: for AUC: read-out: Mean AUCτ (SD); for Tmax: read-out: Median tmax (min-max); for Cmax: read-out: Mean Cmax (SD)
Experimental: A pharmaceutical formulation comprising Compound (a) as described in Example 2 (SF2a/b) was administered as an oral dosage form, to healthy adult participants, in a fed state. Four dose regimens were applied: • Panel I (weekly dosing): 450 mg of Compound (a) twice a day (BID) for two days: on day 1 (D1) and on day 2 (D2) (loading dose); and then 900 mg once a week (Q7D), on day 3 (D3), day 10 (D10), day 17 (D17), and on day 24 (D24) (maintenance dose). • Panel II (biweekly dosing): 450 mg of Compound (a) twice a day (BID) for two days: on day 1 (D1) and on day 2 (D2); (loading dose) and then 450 mg once every 3 (Q3D) or 4 days (Q4D): on day 3 (D3), on day 6 (D6), on day 10 (D10), on day 13 (D13), on day 17 (D17), on day 20 (D20), on day 24 (D24), and on day 27 (D27), for a total of 900 mg each week administered through two doses of 450 mg each (maintenance dose). • Panel III (weekly dosing): 150 mg of Compound (a) twice a day (BID) for two days: on day 1 (D1) and on day 2 (D2) (loading dose); and then 300 mg once a week (Q7D): on day 3 (D3), day 10 (D10), day 17 (D17), and on day 24 (D24) (maintenance dose). • Panel IV (biweekly dosing): 150 mg of Compound (a) twice a day (BID) for two days: on day 1 (D1) and on day 2 (D2) (loading dose); and then 150 mg Q3D or Q4D: on day 3 (D3), on day 6 (D6), on day 10 (D10), on day 13 (D13), on day 17 (D17), on day 20 (D20), on day 24 (D24), and on day 27 (D27), for a total of 300 mg each week administered through two doses of 150 mg each (maintenance dose).
Oral dosage forms were administered together with approximately 240 mL of non-carbonated water under fed conditions, and were taken within 10 minutes after completion of normal standardized normal fat breakfast in the morning or after completion of normal standardized normal fat dinner in case of evening dosing. Intake of Compound (a) took place at around the same time each day. Intake of Compound (a) marked time 0 hours.
A standardized normal fat meal was served approximately 30 minutes before study drug intake. The standardized normal fat meal contained approximately 21 g of fat, 67 g of carbohydrates, 19 g of proteins resulting in around 533 kcal (an example meal is 4 slices of bread, 2 slices of ham or cheese, butter, jelly, and 1 or 2 cups (up to 355 mL) of decaffeinated coffee or tea with milk and/or sugar). The standardized normal fat meal was ingested entirely within 30 minutes or less. Within 10 minutes after completing the meal, but no more than 30 minutes after the start of the meal, study drug was administered. In case of Compound (a) intake in the evening, timing of standardized dinner was aligned to time of drug intake. […]
For Study Panel 1 only, additional whole blood samples were be collected on Days 1, 24, 25, 26, 38, 45, 51, and 59 using venipuncture. The whole blood samples were be used for the determination of Compound (a) whole blood concentrations and for determination of Compound (a) plasma concentrations. To determine Compound (a) venous whole blood concentrations, an aliquot of the whole blood sample was be pipetted onto the TASSO M-20 for better comparison with capillary whole blood samples collected by TASSO M-20. […]
Separation between metabolites and interfering endogenous compounds was achieved by injecting 2 μL sample extract onto an Acquity UPLC BEH C18 column (50×2.1 mm, 1.7 μm, Waters) at 50° C. and using 10 mM ammonium bicarbonate solution as mobile phase A, and methanol: acetonitrile (50:50, v/v) as mobile phase B. A gradient elution at a flow rate of 0.600 mL/min was applied using the following program: 35% B was increased to 90% B in 3 min, was further increased to 98% B at 3.01 min and held constant up to 4.00 min.
A Triple Quad 6500+ mass spectrometer (Sciex) equipped with a turbo ion spray source was used for analyte detection in positive ion mode using electrospray ionization. […]

[1] = Panel I (450 mg BID Days 1-2, then 900 mg Q7D; SF2a/b, fed), Day 2
[2] = Panel II (450 mg BID Days 1-2, then 450 mg Q3D/Q4D; SF2a/b, fed), Day 2
[3] = Panel III (150 mg BID Days 1-2, then 300 mg Q7D; SF2a/b, fed), Day 2
[4] = Panel IV (150 mg BID Days 1-2, then 150 mg Q3D/Q4D; SF2a/b, fed), Day 2
[5] = human, plasma, oral, 150 mg, Panel III (150 mg BID Days 1-2, then 300 mg Q7D; SF2a/b, fed), Day 1
[6] = human, plasma, oral, 150 mg, Panel III (150 mg BID Days 1-2, then 300 mg Q7D; SF2a/b, fed), Day 2
[7] = human, plasma, oral, 150 mg, Panel IV (150 mg BID Days 1-2, then 150 mg Q3D/Q4D; SF2a/b, fed), Day 3
[8] = human, plasma, oral, 150 mg, Panel IV (150 mg BID Days 1-2, then 150 mg Q3D/Q4D; SF2a/b, fed), Day 27

COc1cc(NC(C(=O)c2c[nH]c3ccc(OC(F)(F)F)cc23)c2ccc(Cl)cc2OC)cc(S(C)(=O)=O)c1 (centres unmarked) [Compound (a)]
Mean Cmin (SD) (Panel I (450 mg BID Days 1-2, then 900 mg Q7D; SF2a/b, fed), Day 1): 0.000 (0.000) ng/mL | Mean Cmin (SD) [1]: 2750 (1089) ng/mL | Mean Ctrough (SD) [1]: 2780 (1047) ng/mL | Mean Ctrough (SD) (Panel I (450 mg BID Days 1-2, then 900 mg Q7D; SF2a/b, fed), Day 3): 4370 (976) ng/mL | Mean Ctrough (SD) (Panel I (450 mg BID Days 1-2, then 900 mg Q7D; SF2a/b, fed), Day 10): 1965 (35.4) ng/mL | Mean Ctrough (SD) (Panel I (450 mg BID Days 1-2, then 900 mg Q7D; SF2a/b, fed), Day 17): 1500 (113) ng/mL | Mean Cmin (SD) (Panel II (450 mg BID Days 1-2, then 450 mg Q3D/Q4D; SF2a/b, fed), Day 1): 0.000 (0.000) ng/mL | Mean Cmin (SD) [2]: 2492 (307) ng/mL | Mean Ctrough (SD) [2]: 2503 (293) ng/mL | Mean Ctrough (SD) (Panel II (450 mg BID Days 1-2, then 450 mg Q3D/Q4D; SF2a/b, fed), Day 3): 4132 (401) ng/mL | Mean Ctrough (SD) (Panel II (450 mg BID Days 1-2, then 450 mg Q3D/Q4D; SF2a/b, fed), Day 6): 2708 (429) ng/mL | Mean Ctrough (SD) (Panel II (450 mg BID Days 1-2, then 450 mg Q3D/Q4D; SF2a/b, fed), Day 10): 2340 (577) ng/mL | Mean Ctrough (SD) (Panel II (450 mg BID Days 1-2, then 450 mg Q3D/Q4D; SF2a/b, fed), Day 13): 2343 (639) ng/mL | Mean Ctrough (SD) (Panel II (450 mg BID Days 1-2, then 450 mg Q3D/Q4D; SF2a/b, fed), Day 17): 2088 (693) ng/mL | Mean Ctrough (Panel II (450 mg BID Days 1-2, then 450 mg Q3D/Q4D; SF2a/b, fed), Day 20): 2270 (652) ng/mL | Mean Ctrough (SD) (Panel II (450 mg BID Days 1-2, then 450 mg Q3D/Q4D; SF2a/b, fed), Day 24): 2016 (847) ng/mL | Mean Ctrough (SD) (Panel II (450 mg BID Days 1-2, then 450 mg Q3D/Q4D; SF2a/b, fed), Day 27): 1928 (605) ng/mL | Mean Cmin (SD) (Panel III (150 mg BID Days 1-2, then 300 mg Q7D; SF2a/b, fed), Day 1): 0.000 (0.000) ng/mL | Mean Cmin (SD) [3]: 899 (151) ng/mL | Mean Ctrough (SD) [3]: 899 (151) ng/mL | Mean Ctrough (SD) (Panel III (150 mg BID Days 1-2, then 300 mg Q7D; SF2a/b, fed), Day 3): 1582 (298) ng/mL | Mean Ctrough (SD) (Panel III (150 mg BID Days 1-2, then 300 mg Q7D; SF2a/b, fed), Day 10): 775 (99.3) ng/mL | Mean Ctrough (SD) (Panel III (150 mg BID Days 1-2, then 300 mg Q7D; SF2a/b, fed), Day 17): 700 (98.1) ng/mL | Mean Cmin (SD) (Panel IV (150 mg BID Days 1-2, then 150 mg Q3D/Q4D; SF2a/b, fed), Day 1): 0.000 (0.000) ng/mL | Mean Cmin (SD) [4]: 892 (257) ng/mL | Mean Ctrough (SD) [4]: 892 (257) ng/mL | Mean Ctrough (SD) (Panel IV (150 mg BID Days 1-2, then 150 mg Q3D/Q4D; SF2a/b, fed), Day 3): 1472 (385) ng/mL | Mean Ctrough (SD) (Panel IV (150 mg BID Days 1-2, then 150 mg Q3D/Q4D; SF2a/b, fed), Day 6): 865 (236) ng/mL | Mean Ctrough (SD) (Panel IV (150 mg BID Days 1-2, then 150 mg Q3D/Q4D; SF2a/b, fed), Day 10): 681 (234) ng/mL | Mean Ctrough (SD) (Panel IV (150 mg BID Days 1-2, then 150 mg Q3D/Q4D; SF2a/b, fed), Day 13): 689 (238) ng/mL | Mean Ctrough (SD) (Panel IV (150 mg BID Days 1-2, then 150 mg Q3D/Q4D; SF2a/b, fed), Day 17): 570 (269) ng/mL | Mean Ctrough (Panel IV (150 mg BID Days 1-2, then 150 mg Q3D/Q4D; SF2a/b, fed), Day 20): 710 (236) ng/mL | Mean Ctrough (SD) (Panel IV (150 mg BID Days 1-2, then 150 mg Q3D/Q4D; SF2a/b, fed), Day 24): 612 (239) ng/mL | Mean Ctrough (SD) (Panel IV (150 mg BID Days 1-2, then 150 mg Q3D/Q4D; SF2a/b, fed), Day 27): 623 (237) ng/mL | maintaining exposures over time with weekly or twice weekly dosing (Panels I-IV, fed): feasible to maintain Compound (a) exposures over time | AUC [5]: 5680 ng·h/mL | Tmax [5]: 5 h | AUC [6]: 16800 ng·h/mL | Cmax [6]: 1810 ng/mL | Tmax [6]: 5 h | Cmax (human, plasma, oral, 150 mg, Panel IV (150 mg BID Days 1-2, then 150 mg Q3D/Q4D; SF2a/b, fed), Day 1): 753 ng/mL | AUC(0-t) (human, plasma, oral, 150 mg, Panel IV (150 mg BID Days 1-2, then 150 mg Q3D/Q4D; SF2a/b, fed), Day 3, read-out: Mean AUC24 h (SD)): 38600 ng·h/mL | AUC(0-t) (human, plasma, oral, 150 mg, Panel IV (150 mg BID Days 1-2, then 150 mg Q3D/Q4D; SF2a/b, fed), Day 3, read-out: Mean AUC72 h (SD)): 89200 ng·h/mL | Cmax [7]: 2120 ng/mL | Tmax [7]: 5 h | Cmax (human, plasma, oral, 150 mg, Panel IV (150 mg BID Days 1-2, then 150 mg Q3D/Q4D; SF2a/b, fed), Day 6): 1460 ng/mL | Cmax (human, plasma, oral, 150 mg, Panel IV (150 mg BID Days 1-2, then 150 mg Q3D/Q4D; SF2a/b, fed), Day 10): 1230 ng/mL | Cmax (human, plasma, oral, 150 mg, Panel IV (150 mg BID Days 1-2, then 150 mg Q3D/Q4D; SF2a/b, fed), Day 13): 1180 ng/mL | Cmax (human, plasma, oral, 150 mg, Panel IV (150 mg BID Days 1-2, then 150 mg Q3D/Q4D; SF2a/b, fed), Day 17, n = 3): 1210 ng/mL | Cmax (human, plasma, oral, 150 mg, Panel IV (150 mg BID Days 1-2, then 150 mg Q3D/Q4D; SF2a/b, fed), Day 20): 1200 ng/mL | Cmax (human, plasma, oral, 150 mg, Panel IV (150 mg BID Days 1-2, then 150 mg Q3D/Q4D; SF2a/b, fed), Day 24): 1260 ng/mL | AUC(0-t) (human, plasma, oral, 150 mg, Panel IV (150 mg BID Days 1-2, then 150 mg Q3D/Q4D; SF2a/b, fed), Day 27, read-out: Mean AUC24 h (SD)): 26000 ng·h/mL | AUC(0-t) (human, plasma, oral, 150 mg, Panel IV (150 mg BID Days 1-2, then 150 mg Q3D/Q4D; SF2a/b, fed), Day 27, read-out: Mean AUC72 h (SD)): 65800 ng·h/mL | AUC(0-t) (human, plasma, oral, 150 mg, Panel IV (150 mg BID Days 1-2, then 150 mg Q3D/Q4D; SF2a/b, fed), Day 27, read-out: Mean AUClast (SD)): 258000 ng·h/mL | AUC(0-inf) (human, plasma, oral, 150 mg, Panel IV (150 mg BID Days 1-2, then 150 mg Q3D/Q4D; SF2a/b, fed), Day 27, read-out: Mean AUC∞ (SD)): 274000 ng·h/mL | Cmax [8]: 1380 ng/mL | Tmax [8]: 5 h | AUC(0-t) (human, plasma, oral, 300 mg, Panel III (150 mg BID Days 1-2, then 300 mg Q7D; SF2a/b, fed), Day 3, read-out: Mean AUC24 h (SD)): 52400 ng·h/mL | AUC(0-t) (human, plasma, oral, 300 mg, Panel III (150 mg BID Days 1-2, then 300 mg Q7D; SF2a/b, fed), Day 3, read-out: Mean AUC72 h (SD)): 122000 ng·h/mL
